Laboratory results published in US20090036512A1, “FUNGICIDAL ACTIVE COMPOUND COMBINATION” (priority 2005, published 2009).

System: Leptosphaeria nodorum
Experiment: Leptosphaeria nodorum test (wheat)/protective
Assay type: in vivo
Conditions: Parastagonospora nodorum, 240 h, protective, evaluation 10 days after inoculation
Protocol: Leptosphaeria nodorum test (wheat)/protective Solvent: 50 parts by weight of N,N-dimethylacetamide Emulsifier: 1 part by weight of alkylaryl polyglycol ether To prepare a suitable preparation of active compound, 1 part by weight of active compound or active compound combination is mixed with the stated amounts of solvents and emulsifier, and the concentrate is diluted with water to the desired concentration, or a commercial formulation of active compound or active compound combination with water is diluted with water to the desired concentration. To test for protective activity, young plants are sprayed with the active compound preparation at the stated application rate. After the spray coating has dried on, the plants are sprayed with a spore suspension of Leptosphaeria nodorum. The plants remain in an incubation cabin at 20° C. and 100% relative atmospheric humidity for 48 hours. The plants are placed in a greenhouse at a temperature of about 20° C. and a relative atmospheric humidity of 80%. Evaluation is carried out 10 days after inoculation. Here, 0% means an efficacy which corresponds to that of the control, whereas an efficacy of 100% means that no infection is observed.

For `CON=C(C(=O)OC)c1ccccc1CO/N=C(\C)c1cccc(C(F)(F)F)c1` [Trifloxystrobin, 2-[α-{[(α-methyl-3-trifluoromethyl-benzyl)imino]-oxy}-o-tolyl]-glyoxylic acid methyl ester O-methyloxime], the Emax at 25 ppm (application rate 25 ppm, read-out: % efficacy) was 50%.

`O=C1C2CC=CCC2C(=O)N1SC(Cl)(Cl)Cl` (stereo not shown) [Captan, 3a,4,7,7a-tetrahydro-2-[(trichloromethyl)thio]-1H-isoindole-1,3(2H)-dione] was tested, and the Emax at 82.5 ppm (application rate 82.5 ppm, read-out: % efficacy (converted)) was 50%, the Emax at 375 ppm (application rate 375 ppm, read-out: % efficacy) was 25% and the Emax at 500 ppm (application rate 500 ppm, read-out: % efficacy) was 25%.
